Measured values published in patent US20170252298A1, “Performance-Enhancing Nasal Irrigation” (Backed-by-Science, Inc., priority 2014, published 2017).

Test system: nasal cilia
Assay: nasal ciliary beat frequency (CBF), whole field analysis over time
Format: cell-based
Parameters: Mean CBF (WFA): unit: Hz
Experimental: The ATP concentration inside the cell is typically 1-10 millimolar (mM). We started with an ATP concentration of 1 mg/ml based on literature data and from testing done by Dr. James Palmer at University of Pennsylvania on ATP concentration for increasing nasal ciliary beat frequency. […] 1 mg/ml from the below charts=1 mg/ml=1 gram per liter=1/507 g/mol=2 mM. Most intracellular ATP concentrations in animals fall within the range of 0.5-10 mM. [table]

[1] = Plate 2, elapsed 0:08:10, ATP 1 mg/ml
[2] = Plate 2, elapsed 0:08:20, ATP 1 mg/ml
[3] = Plate 2, elapsed 0:08:30, ATP 1 mg/ml
[4] = Plate 2, elapsed 0:08:40, ATP 1 mg/ml
[5] = Plate 2, elapsed 0:08:50, ATP 1 mg/ml
[6] = Plate 2, elapsed 0:09:00, ATP 1 mg/ml
[7] = Plate 2, elapsed 0:09:10, ATP 1 mg/ml
[8] = Plate 2, elapsed 0:09:20, ATP 1 mg/ml
[9] = Plate 2, elapsed 0:09:30, ATP 1 mg/ml
[10] = Plate 2, elapsed 0:09:40, ATP 1 mg/ml
[11] = Plate 2, elapsed 0:09:50, ATP 1 mg/ml
[12] = Plate 2, elapsed 0:10:00, ATP 1 mg/ml
[13] = Plate 2, elapsed 0:10:10, ATP 1 mg/ml
[14] = Plate 2, elapsed 0:10:20, ATP 1 mg/ml
[15] = Plate 2, elapsed 0:10:30, ATP 1 mg/ml
[16] = Plate 2, elapsed 0:10:40, ATP 1 mg/ml
[17] = Plate 2, elapsed 0:10:50, ATP 1 mg/ml
[18] = Plate 2, elapsed 0:11:00, ATP 1 mg/ml
[19] = Plate 2, elapsed 0:11:10, ATP 1 mg/ml
[20] = Plate 2, elapsed 0:15:10, ATP 1 mg/ml
[21] = Plate 2, elapsed 0:15:20, ATP 1 mg/ml
[22] = Plate 2, elapsed 0:15:30, ATP 1 mg/ml
[23] = Plate 2, elapsed 0:15:40, ATP 1 mg/ml
[24] = Plate 2, elapsed 0:15:50, ATP 1 mg/ml
[25] = Plate 2, elapsed 0:16:00, ATP 1 mg/ml
[26] = Plate 2, elapsed 0:16:10, ATP 1 mg/ml
[27] = Plate 2, elapsed 0:16:20, ATP 1 mg/ml
[28] = Plate 2, elapsed 0:16:30, ATP 1 mg/ml
[29] = Plate 2, elapsed 0:16:40, ATP 1 mg/ml
[30] = Plate 2, elapsed 0:16:50, ATP 1 mg/ml
[31] = Plate 2, elapsed 0:17:00, ATP 1 mg/ml
[32] = Plate 2, elapsed 0:17:10, ATP 1 mg/ml
[33] = Plate 2, elapsed 0:17:20, ATP 1 mg/ml
[34] = Plate 2, elapsed 0:17:30, ATP 1 mg/ml
[35] = Plate 2, elapsed 0:17:40, ATP 1 mg/ml
[36] = Plate 2, elapsed 0:17:50, ATP 1 mg/ml
[37] = Plate 2, elapsed 0:18:00, ATP 1 mg/ml
[38] = Plate 2, elapsed 0:18:10, ATP 1 mg/ml
[39] = Plate 2, elapsed 0:18:20, ATP 1 mg/ml
[40] = Plate 2, elapsed 0:18:30, ATP 1 mg/ml
[41] = Plate 2, elapsed 0:18:40, ATP 1 mg/ml
[42] = Plate 2, elapsed 0:18:50, ATP 1 mg/ml
[43] = Plate 2, elapsed 0:19:00, ATP 1 mg/ml
[44] = Plate 2, elapsed 0:19:10, ATP 1 mg/ml
[45] = Plate 2, elapsed 0:19:20, ATP 1 mg/ml
[46] = Plate 2, elapsed 0:19:30, ATP 1 mg/ml
[47] = Plate 2, elapsed 0:19:40, ATP 1 mg/ml
[48] = Plate 2, elapsed 0:19:50, ATP 1 mg/ml
[49] = Plate 2, elapsed 0:20:00, ATP 1 mg/ml

`Nc1ncnc2c1ncn2[C@@H]1O[C@H](COP(=O)(O)OP(=O)(O)OP(=O)(O)O)[C@@H](O)[C@H]1O` [ATP, adenosine triphosphate] was tested, and the “Active Area” value [1] was 37.97%, the “Mean CBF (WFA)” value [1] was 8.3 and the “Active Area” value [2] was 38.66%. The “Mean CBF (WFA)” value [2] was 8.29, the “Active Area” value [3] was 39% and the “Mean CBF (WFA)” value [3] was 8.27. For the same compound, the “Active Area” value [4] was 36.32%, the “Mean CBF (WFA)” value [4] was 8.33 and the “Active Area” value [5] was 39.05%. For the same compound, the “Mean CBF (WFA)” value [5] was 8.36, the “Active Area” value [6] was 37.12% and the “Mean CBF (WFA)” value [6] was 8.36. For the same compound, the “Active Area” value [7] was 38.83%, the “Mean CBF (WFA)” value [7] was 8.31 and the “Active Area” value [8] was 38.39%. For the same compound, the “Mean CBF (WFA)” value [8] was 8.31, the “Active Area” value [9] was 37.54% and the “Mean CBF (WFA)” value [9] was 8.37. For the same compound, the “Active Area” value [10] was 36.11%, the “Mean CBF (WFA)” value [10] was 8.42 and the “Active Area” value [11] was 35.79%. For the same compound, the “Mean CBF (WFA)” value [11] was 8.4, the “Active Area” value [12] was 36.58% and the “Mean CBF (WFA)” value [12] was 8.44. The “Active Area” value [13] was 36.77%, the “Mean CBF (WFA)” value [13] was 8.49 and the “Active Area” value [14] was 37.58%. For the same compound, the “Mean CBF (WFA)” value [14] was 8.39, the “Active Area” value [15] was 37.33% and the “Mean CBF (WFA)” value [15] was 8.41. The “Active Area” value [16] was 37.82%, the “Mean CBF (WFA)” value [16] was 8.41 and the “Active Area” value [17] was 35.58%. For the same compound, the “Mean CBF (WFA)” value [17] was 8.37, the “Active Area” value [18] was 38.06% and the “Mean CBF (WFA)” value [18] was 8.43. For the same compound, the “Active Area” value [19] was 38.67%, the “Mean CBF (WFA)” value [19] was 8.42 and the “Active Area” value [20] was 41.31%. For the same compound, the “Mean CBF (WFA)” value [20] was 8.44, the “Active Area” value [21] was 41.96% and the “Mean CBF (WFA)” value [21] was 8.48. For the same compound, the “Active Area” value [22] was 39.32%, the “Mean CBF (WFA)” value [22] was 8.43 and the “Active Area” value [23] was 39.9%. The “Mean CBF (WFA)” value [23] was 8.44, the “Active Area” value [24] was 40.84% and the “Mean CBF (WFA)” value [24] was 8.41. For the same compound, the “Active Area” value [25] was 41.99%, the “Mean CBF (WFA)” value [25] was 8.36 and the “Active Area” value [26] was 42.7%. For the same compound, the “Mean CBF (WFA)” value [26] was 8.37, the “Active Area” value [27] was 43.14% and the “Mean CBF (WFA)” value [27] was 8.39. For the same compound, the “Active Area” value [28] was 42.52%, the “Mean CBF (WFA)” value [28] was 8.36 and the “Active Area” value [29] was 42.09%. For the same compound, the “Mean CBF (WFA)” value [29] was 8.38, the “Active Area” value [30] was 42.85% and the “Mean CBF (WFA)” value [30] was 8.33. For the same compound, the “Active Area” value [31] was 38.98%, the “Mean CBF (WFA)” value [31] was 8.32 and the “Active Area” value [32] was 41.85%. For the same compound, the “Mean CBF (WFA)” value [32] was 8.27, the “Active Area” value [33] was 41.7% and the “Mean CBF (WFA)” value [33] was 8.24. For the same compound, the “Active Area” value [34] was 42.78%, the “Mean CBF (WFA)” value [34] was 8.29 and the “Active Area” value [35] was 40.85%. For the same compound, the “Mean CBF (WFA)” value [35] was 8.32, the “Active Area” value [36] was 42.27% and the “Mean CBF (WFA)” value [36] was 8.27. For the same compound, the “Active Area” value [37] was 38.92%, the “Mean CBF (WFA)” value [37] was 8.27 and the “Active Area” value [38] was 40.18%. The “Mean CBF (WFA)” value [38] was 8.29, the “Active Area” value [39] was 42.69% and the “Mean CBF (WFA)” value [39] was 8.27. The “Active Area” value [40] was 42.91%, the “Mean CBF (WFA)” value [40] was 8.27 and the “Active Area” value [41] was 41.71%. For the same compound, the “Mean CBF (WFA)” value [41] was 8.24, the “Active Area” value [42] was 42.85% and the “Mean CBF (WFA)” value [42] was 8.28. The “Active Area” value [43] was 43.3%, the “Mean CBF (WFA)” value [43] was 8.24 and the “Active Area” value [44] was 42.12%. The “Mean CBF (WFA)” value [44] was 8.22, the “Active Area” value [45] was 42.33% and the “Mean CBF (WFA)” value [45] was 8.25. For the same compound, the “Active Area” value [46] was 43.77%, the “Mean CBF (WFA)” value [46] was 8.23 and the “Active Area” value [47] was 44.6%. For the same compound, the “Mean CBF (WFA)” value [47] was 8.25, the “Active Area” value [48] was 43.27% and the “Mean CBF (WFA)” value [48] was 8.24. For the same compound, the “Active Area” value [49] was 43.87%, the “Mean CBF (WFA)” value [49] was 8.26 and the “ATP concentration sufficient to give an increase in ciliary beat frequency” value (testing by Dr. James Palmer, University of Pennsylvania) was 1 mg/mL.
